Measured values from ChEMBL document CHEMBL1134914, “Acyl dipeptides as reversible caspase inhibitors. Part 1: initial lead optimization” (Bioorg Med Chem Lett, 2002).

Legend:
Caspase-3 = molecular target: T1, Caspase-3 (Homo sapiens, UniProt P42574); test: Inhibitory concentration against caspase-3
T1 sequence (P42574 whole entry): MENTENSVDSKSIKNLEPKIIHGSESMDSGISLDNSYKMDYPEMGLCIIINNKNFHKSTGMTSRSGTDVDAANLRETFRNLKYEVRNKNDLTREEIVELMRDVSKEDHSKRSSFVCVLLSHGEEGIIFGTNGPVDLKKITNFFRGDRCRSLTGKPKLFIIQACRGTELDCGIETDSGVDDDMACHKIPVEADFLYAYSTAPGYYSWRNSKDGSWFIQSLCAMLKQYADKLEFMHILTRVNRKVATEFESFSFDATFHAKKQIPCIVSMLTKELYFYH

Caspase-8 = Caspase-8 (Homo sapiens, UniProt Q14790); test: Inhibitory concentration against caspase-8
Caspase-7 = molecular target: T2, Caspase-7 (Homo sapiens, UniProt P55210); test: Inhibitory concentration against caspase-7
T2 sequence (P55210 whole entry): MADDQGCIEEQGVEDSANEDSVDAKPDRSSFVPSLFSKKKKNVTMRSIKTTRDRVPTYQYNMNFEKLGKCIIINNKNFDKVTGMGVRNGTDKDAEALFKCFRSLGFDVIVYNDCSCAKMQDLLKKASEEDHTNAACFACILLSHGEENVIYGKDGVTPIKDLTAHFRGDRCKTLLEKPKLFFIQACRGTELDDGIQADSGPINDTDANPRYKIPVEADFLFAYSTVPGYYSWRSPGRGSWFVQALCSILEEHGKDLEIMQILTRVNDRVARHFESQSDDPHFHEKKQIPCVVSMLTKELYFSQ

Caspase-6 = molecular target: T3, Caspase-6 (Homo sapiens, UniProt P55212); test: Inhibitory concentration required against caspase-6
T3 sequence (P55212 whole entry): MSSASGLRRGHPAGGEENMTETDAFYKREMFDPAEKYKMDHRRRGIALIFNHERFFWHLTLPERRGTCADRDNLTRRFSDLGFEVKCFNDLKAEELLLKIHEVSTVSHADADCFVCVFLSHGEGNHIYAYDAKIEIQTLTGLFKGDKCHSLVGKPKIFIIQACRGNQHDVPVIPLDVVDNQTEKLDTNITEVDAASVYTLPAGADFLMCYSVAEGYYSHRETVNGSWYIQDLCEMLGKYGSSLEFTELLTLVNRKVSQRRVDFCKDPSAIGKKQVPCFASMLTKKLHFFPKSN

Caspase-1 (Mus musculus) = Caspase-1 (Mus musculus) (UniProt P29452)
Sequence of Caspase-1 (Mus musculus) (P29452 whole entry, looked up): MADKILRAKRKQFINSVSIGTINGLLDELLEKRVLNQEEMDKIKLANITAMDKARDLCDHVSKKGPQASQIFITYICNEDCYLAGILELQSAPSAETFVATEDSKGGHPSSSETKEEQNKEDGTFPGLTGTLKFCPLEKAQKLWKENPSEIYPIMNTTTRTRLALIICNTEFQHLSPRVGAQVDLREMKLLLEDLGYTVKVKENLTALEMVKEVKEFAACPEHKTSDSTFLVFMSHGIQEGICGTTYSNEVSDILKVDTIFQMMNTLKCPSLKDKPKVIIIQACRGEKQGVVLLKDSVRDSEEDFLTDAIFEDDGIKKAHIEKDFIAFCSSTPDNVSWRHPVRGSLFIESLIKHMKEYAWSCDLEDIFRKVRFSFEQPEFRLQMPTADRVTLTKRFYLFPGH

Sequence of Caspase-8 (Q14790 217-374 limits assumed): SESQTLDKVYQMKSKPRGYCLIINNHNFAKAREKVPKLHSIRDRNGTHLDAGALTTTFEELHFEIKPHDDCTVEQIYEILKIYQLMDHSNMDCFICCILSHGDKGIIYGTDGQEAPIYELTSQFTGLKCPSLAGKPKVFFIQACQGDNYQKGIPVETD
Sequence of Caspase-8 (Q14790 385-479 limits assumed): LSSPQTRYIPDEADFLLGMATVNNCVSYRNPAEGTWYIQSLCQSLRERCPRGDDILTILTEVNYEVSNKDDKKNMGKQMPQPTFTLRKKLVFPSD

| IC50 (Caspase-3) [µM] | IC50 (Caspase-8) [µM] | IC50 (Caspase-7) [µM] | IC50 (Caspase-6) [µM] | IC50 (Caspase-1 (Mus musculus)) [µM] | Compound |
| --- | --- | --- | --- | --- | --- |
| 0.263 | 1.45 | 4.08 | 22.6 | 0.831 | COc1ccc(OCC(=O)N[C@@H](CC(C)C)C(=O)N[C@H]2CC(=O)OC2O)c2ccccc12 (stereo partly drawn) |
| 1.57 | > 50 | 34.7 | > 50 | 44.2 | CC(C)C[C@H](NC(=O)COc1nccc2ccccc12)C(=O)N[C@H]1CC(=O)OC1O (stereo partly drawn) |
| 3.4 | > 10 | > 10 | > 50 | > 10 | CC(C)C[C@H](NC(=O)COc1ccccc1)C(=O)N[C@H]1CC(=O)OC1O (stereo partly drawn) |
| > 10 | > 10 | > 10 | > 10 | – | CC(C)C[C@H](NC(=O)c1cccc2ccccc12)C(=O)N[C@H]1CC(=O)OC1O (stereo partly drawn) |
| 0.232 | > 50 | 4.57 | > 50 | 35.3 | CC(C)C[C@H](NC(=O)COc1ccnc2ccccc12)C(=O)N[C@H]1CC(=O)OC1O (stereo partly drawn) |
| 0.849 | 12.7 | > 10 | 11.1 | 3.14 | CC(C)C[C@H](NC(=O)Cc1ccc2ccccc2c1)C(=O)N[C@H]1CC(=O)OC1O (stereo partly drawn) |
| 0.222 | 4.34 | 2.2 | 9.75 | 2.4 | CC(C)C[C@H](NC(=O)COc1ccccc1OCc1ccccc1)C(=O)N[C@H]1CC(=O)OC1O (stereo partly drawn) |
| 0.147 | 2.24 | 1.51 | 12.5 | 13.7 | CC(C)C[C@H](NC(=O)COc1cccc2cccnc12)C(=O)N[C@H]1CC(=O)OC1O (stereo partly drawn) |
| 0.407 | 3.64 | 3.48 | 42.7 | 5.14 | CC(C)C[C@H](NC(=O)COc1cccc2cnccc12)C(=O)N[C@H]1CC(=O)OC1O (stereo partly drawn) |
| 0.49 | 6.05 | 3.36 | 10.1 | 0.521 | CC(C)C[C@H](NC(=O)COc1ccccc1Cc1ccccc1)C(=O)N[C@H]1CC(=O)OC1O (stereo partly drawn) |
| 0.545 | 9.28 | 6.82 | 21.2 | 2.21 | CC(C)C[C@H](NC(=O)COc1ccc(Oc2ccccc2)cc1)C(=O)N[C@H]1CC(=O)OC1O (stereo partly drawn) |
| 0.059 | 9.81 | 1.37 | 0.305 | – | CC(C)C[C@H](NC(=O)CCOc1cccc2ccccc12)C(=O)N[C@H]1CC(=O)OC1O (stereo partly drawn) |
| 0.376 | 2.43 | 1.32 | 1.28 | – | CC(C)C[C@H](NC(=O)C(C)Oc1cccc2ccccc12)C(=O)N[C@H]1CC(=O)OC1O (stereo partly drawn) |
| 0.412 | 4.02 | 3.85 | > 50 | 5.25 | CC(C)C[C@H](NC(=O)COc1cccc2ncccc12)C(=O)N[C@H]1CC(=O)OC1O (stereo partly drawn) |
| 0.195 | 7.42 | 1.74 | 1.43 | 2.75 | CC(C)C[C@H](NC(=O)CSc1cccc2ccccc12)C(=O)N[C@H]1CC(=O)OC1O (stereo partly drawn) |
| 0.135 | 0.77 | 1.81 | 0.94 | – | CC(C)C[C@H](NC(=O)COc1cccc2ccccc12)C(=O)N[C@H]1CC(=O)OC1O (stereo partly drawn) |
| 0.853 | – | 7.27 | – | 3.24 | CC(C)C[C@H](NC(=O)Cc1cccc2ccccc12)C(=O)N[C@H]1CC(=O)OC1O (stereo partly drawn) |
| 0.269 | 11 | 2.52 | 3.16 | 0.792 | CC(C)C[C@H](NC(=O)CSc1ccc2ccccc2c1)C(=O)N[C@H]1CC(=O)OC1O (stereo partly drawn) |
| 0.231 | 1.69 | 3.38 | 12 | 0.429 | CC(C)C[C@H](NC(=O)COc1ccc(Cl)c2ccccc12)C(=O)N[C@H]1CC(=O)OC1O (stereo partly drawn) |
| 0.311 | 3.86 | 3.75 | 14.5 | 1.1 | CC(C)C[C@H](NC(=O)COc1cccc(-c2ccccc2)c1)C(=O)N[C@H]1CC(=O)OC1O (stereo partly drawn) |
| 0.095 | 1.71 | 2.02 | 0.717 | 0.636 | CC(C)C[C@H](NC(=O)COc1ccccc1-c1ccccc1)C(=O)N[C@H]1CC(=O)OC1O (stereo partly drawn) |

The next lines start with the compound.

| Compound | IC50 (Caspase-3) [µM] | IC50 (Caspase-8) [µM] | IC50 (Caspase-7) [µM] | IC50 (Caspase-6) [µM] | IC50 (Caspase-1 (Mus musculus)) [µM] |
| --- | --- | --- | --- | --- | --- |
| CC(C)C[C@H](NC(=O)CCCc1ccc2ccccc2c1)C(=O)N[C@H]1CC(=O)OC1O (stereo partly drawn) | 2.76 | > 50 | 18.2 | 14.5 | 1.8 |
| CC(C)C[C@H](NC(=O)COc1ccc(OCc2ccccc2)cc1)C(=O)N[C@H]1CC(=O)OC1O (stereo partly drawn) | 0.57 | 8.6 | 7.25 | 33.4 | 2.51 |
| CC(C)C[C@H](NC(=O)CCOc1ccc2ccccc2c1)C(=O)N[C@H]1CC(=O)OC1O (stereo partly drawn) | 0.91 | 15.2 | 9.65 | 5.9 | 1.32 |
| CC(C)[C@@H](NC(=O)OCc1ccccc1)C(=O)C[C@H]1CC(=O)OC1O (stereo partly drawn) | 1.75 | 12 | 6.81 | 10 | 5.85 |
| CC(C)C[C@H](NC(=O)c1ccc2ccccc2c1)C(=O)N[C@H]1CC(=O)OC1O (stereo partly drawn) | 6.74 | > 10 | > 10 | > 10 | 1.74 |
| CC(C)C[C@H](NC(=O)CCc1cccc2ccccc12)C(=O)N[C@H]1CC(=O)OC1O (stereo partly drawn) | 1.59 | 12.2 | 8.77 | 4.18 | 1.86 |
| CC(C)C[C@H](NC(=O)/C=C/c1ccccc1)C(=O)N[C@H]1CC(=O)OC1O (stereo partly drawn) | 1.39 | 13.4 | 9.72 | 5.05 | 0.65 |
| CC(C)C[C@H](NC(=O)CCOc1ccccc1)C(=O)N[C@H]1CC(=O)OC1O (stereo partly drawn) | 0.419 | > 10 | 6.04 | > 50 | 9.42 |
| CC(C)C[C@H](NC(=O)CCSc1ccc2ccccc2c1)C(=O)N[C@H]1CC(=O)OC1O (stereo partly drawn) | 0.837 | 15 | 5.89 | 1.62 | 0.611 |
| CC(C)C[C@H](NC(=O)CCSc1cccc2ccccc12)C(=O)N[C@H]1CC(=O)OC1O (stereo partly drawn) | 0.412 | 16.3 | 3.6 | 2.72 | 0.563 |
| CC(C)C[C@H](Nc1ccccc1)C(=O)N[C@H]1CC(=O)OC1O (stereo partly drawn) | 3.4 | > 10 | > 10 | > 50 | > 10 |
| CC(C)C[C@H](NC(=O)C(C)Oc1cccc2cc(Br)ccc12)C(=O)N[C@H]1CC(=O)OC1O (stereo partly drawn) | 4.81 | 29.1 | 32.4 | 13.8 | – |
| CC(C)C[C@H](NC(=O)CC(=O)c1ccc2ccccc2c1)C(=O)N[C@H]1CC(=O)OC1O (stereo partly drawn) | 1.42 | 5.23 | 7.43 | 10.3 | 0.543 |
| CC(C)C[C@H](NC(=O)COc1cccc2c1CCCC2)C(=O)N[C@H]1CC(=O)OC1O (stereo partly drawn) | 0.324 | 1.75 | 2.74 | 11.8 | 1.81 |
| CC(C)C[C@H](NC(=O)CC(=O)c1cccc2ccccc12)C(=O)N[C@H]1CC(=O)OC1O (stereo partly drawn) | 0.967 | 11.2 | 11.3 | 11.8 | 0.408 |
| Cc1ccc(OCC(=O)N[C@@H](CC(C)C)C(=O)N[C@H]2CC(=O)OC2O)c(C23CC4CC(CC(C4)C2)C3)c1 (stereo partly drawn) | 0.474 | 3.87 | 2.79 | 5.86 | 1.43 |
| CC(C)C[C@H](NC(=O)COc1ccccc1C1CCCC1)C(=O)N[C@H]1CC(=O)OC1O (stereo partly drawn) | 0.197 | 1.86 | 1.49 | 3.37 | 0.538 |
| CC(C)C[C@H](NC(=O)COc1ccc2c(c1)CCCC2)C(=O)N[C@H]1CC(=O)OC1O (stereo partly drawn) | 0.162 | 4.95 | 2.31 | 28.6 | 2.57 |
| CC(C)C[C@H](NC(=O)COc1ccc(Cc2ccccc2)cc1)C(=O)N[C@H]1CC(=O)OC1O (stereo partly drawn) | 0.346 | 4.72 | 4.41 | 18.9 | 1.8 |
| CC(C)C[C@H](NC(=O)COc1ccc(C23CC4CC(CC(C4)C2)C3)cc1)C(=O)N[C@H]1CC(=O)OC1O (stereo partly drawn) | 0.528 | 4.35 | 8.24 | 32.5 | 1.83 |
| CC(C)C[C@H](NC(=O)COc1ccc(C2CCCC2)cc1)C(=O)N[C@H]1CC(=O)OC1O (stereo partly drawn) | 0.319 | 5.9 | 5.23 | 51.2 | 2.2 |
